Read-outs that look alike come from different tables or passages of the source.
Assays:
RSV-A Long [1] = assay: CPE assay (ATPlite), RSV-A Long in HEp-2 cells; assay type: cell-based; conditions: human respiratory syncytial virus, 120 h, HEp-2, RSV-A Long MOI 0.1, 5 days
RSV-A Long [2] = assay: RT-qPCR viral load assay, RSV-A Long in HEp-2 cells; assay type: cell-based; conditions: human respiratory syncytial virus, HEp-2, RT-qPCR
RSV-B VR-955 [3] = assay: CPE assay, RSV-B VR-955 in A549 cells; assay type: cell-based; conditions: human respiratory syncytial virus
Method: HEp-2, Vero, and BHK were seeded at 8,000 cells per well (cpw) in growth medium (Dulbecco’s Modified Eagle Medium (DMEM) with 1% GlutaMAX, 1% Penicillin/Streptomycin (P/S), 1% Non-Essential Amino Acids (NEAA), 10% Fetal Bovine Serum (FBS)) or (Minimum Essential Medium (MEM) with 10% FBS, 1% NEAA, 1% P/S) or (Eagle’s Minimum Essential Medium with L-Glutamine, with 10% FBS, 1% P/S) respectively. A549 seeded at 3,000 cpw in F-12K Kaighn’s Modification nutrient mixture with 10% FBS, 1% NEAA, 1% P/S. Cells seeded at time of infection in 96-well plates, final well volume 100μL. Compounds suspended in DMSO, serially diluted and added to wells at 0.5% final DMSO concentration. Viral stocks stabilized with 25% sucrose, previously titered using plaque assay, were added at desired MOI. Sucrose added to cells-only control wells to match percent added with virus. Unless otherwise noted, RSV-A strains were tested at 0.1 MOI and incubated for 5 days in a 37°C, 5% CO2 humidified incubator, and RSV-B at 0.5 MOI for 6 days. Cytopathic effect (CPE) determined using ATPlite (Perkin Elmer) measured with Envision luminometer. For RT-qPCR, RNA was extracted from whole well using Ambion RNAqueous-96 Automated Kit, and RT-qPCR run using Applied Biosystems TaqMan RNA-to-CT 1-Step Kit. […] All EC50s were calculated using the XLFit four-parameter logistic model 200 in Microsoft Excel.

RSV-A Long [4] = assay: RT-qPCR assay, RSV-A Long in primary HBECs; assay type: cell-based; conditions: human respiratory syncytial virus, primary HBEC
RSV-B VR-955 [5] = assay: RT-qPCR assay, RSV-B VR-955 in primary HBECs; assay type: cell-based; conditions: human respiratory syncytial virus, primary HBEC
RSV-A Long [6] = assay: RT-qPCR assay, RSV-A Long in BHK cells; assay type: cell-based; conditions: human respiratory syncytial virus
RSV-A Long [7] = assay: RT-qPCR assay, RSV-A Long in primary cotton rat lung cells; assay type: cell-based; conditions: human respiratory syncytial virus, 120 h, RSV-A Long MOI 0.1, 5 days
[8] = tested on: RSV-A and RSV-B laboratory strains; assay: RT-qPCR assay, RSV laboratory strains across primate cell lines; assay type: cell-based; conditions: human respiratory syncytial virus, in Primates, read-out: EC50 values, reduction in viral load by RT-qPCR (range over strains and cells)
Method: The activity of EDP-938 against both RSV-A and RSV-B was evaluated in vitro against multiple laboratory strains commonly used for antiviral screens in HEp-2 cells, human adenocarcinomic alveolar basal epithelial cells (A549), monkey kidney-derived cells (Vero), and Baby Hamster Kidney cells (BHK). Serial dilutions of the compound were added to cells infected with RSV-A at a MOI of 0.1 or RSV-B at an MOI of 0.5 and treated for 5 or 6 days, respectively.
HEp-2, Vero, and BHK were seeded at 8,000 cells per well (cpw) in growth medium (Dulbecco’s Modified Eagle Medium (DMEM) with 1% GlutaMAX, 1% Penicillin/Streptomycin (P/S), 1% Non-Essential Amino Acids (NEAA), 10% Fetal Bovine Serum (FBS)) or (Minimum Essential Medium (MEM) with 10% FBS, 1% NEAA, 1% P/S) or (Eagle’s Minimum Essential Medium with L-Glutamine, with 10% FBS, 1% P/S) respectively. A549 seeded at 3,000 cpw in F-12K Kaighn’s Modification nutrient mixture with 10% FBS, 1% NEAA, 1% P/S. Cells seeded at time of infection in 96-well plates, final well volume 100μL. Compounds suspended in DMSO, serially diluted and added to wells at 0.5% final DMSO concentration. […] Cytopathic effect (CPE) determined using ATPlite (Perkin Elmer) measured with Envision luminometer. […] All EC50s were calculated using the XLFit four-parameter logistic model 200 in Microsoft Excel.

RSV-B clinical isolates = assay: RSV Virospot reduction assay (ViroClinics), RSV-B isolates from the Netherlands; assay type: cell-based; conditions: human respiratory syncytial virus, 10 RSV-B strains from the Netherlands
Method: To further expand testing against clinical isolates, the compound was assayed against a panel of 10 RSV-A and 10 RSV-B strains mainly isolated from children of age 2–200 weeks in the Netherlands.
RSV clinical isolates were obtained from Baylor University and Medical College of Wisconsin. MOI of 0.1 used for all clinical isolates except RSV-A 629-9-2 (0.01) and RSV-B 629-24/2007 (0.0044) due to low titer. Virospot reduction assay was run by ViroClinics (Rotterdam, the Netherlands) against 20 additional RSV clinical isolates.

RSV A2 = assay: RSV-infected African Green monkey model, viral load; assay type: in vivo, African Green monkeys (Chlorocebus)
Method: African Green monkeys (AGMs) are permissive for human RSV infection and support a relatively higher level of viral replication compared to cotton rats and BALB/c mice. It has been previously validated as a non-human primate model for assessing in vivo efficacy of potential RSV vaccines and antiviral drugs. To evaluate the activity of EDP-938 in the AGM model, 4 animals each were treated with 100 mg/kg BID with EDP-938, RSV-604, or vehicle control via oral gavage starting 24 hours prior to RSV challenge and continuing for an additional 5 days. Samples were collected through bronchoalveolar lavage (BAL) and nasopharyngeal (NP) swab at various time points to determine viral load. […] Viral load in the NP swab samples was also determined.
A study of EDP-938 and RSV-604 in the African Green monkey (AGM) animal model was performed by BIOQUAL, Inc (Rockville, Maryland). Methods were similar to those run in a study by Ispas et al.. Six (6) male and 6 female AGMs (Chlorocebus) of 4–5 kg were purchased from PrimGen (Hines, Illinois). Each animal was challenged with 2 x 10^5 PFU of RSV A2 viral inoculum (Virapur, San Diego, CA). Four animals (2 per sex) in each group were treated with EDP-938, RSV-604, or vehicle control (0.5% w/v methylcellulose). The animals were dosed via oral gavage twice daily (every 12 hours), starting 24 hours prior to RSV challenge, and then continuing for an additional 5 days (6 total days of dose administration). Bronchoalveolar lavage (BAL) samples and nasopharyngeal (NP) swabs were collected for viral load determination.

[9] = tested on: recombinant RSV A2-line19F, N protein mutants

## O=C1Nc2ccccc2C(c2ccccc2)=N[C@@H]1Nc1nnc(-c2ncc(C(F)(F)F)cc2N2CCOCC2)o1 [EDP-938]
RSV-A Long [1]; CPE
  EC90: 60 ± 18 nM
RSV-A Long [1]; CPE (ATPlite), read-out: EC50
  EC50: 52 ± 12 nM
RSV-A Long [2]; 120 h, RSV-A Long MOI 0.1, 5 days, read-out: EC50
  EC50: 89 ± 16 nM
RSV-A Long [2]; RSV-A Long
  EC90: 91 ± 62 nM
RSV-B VR-955 [3]; 144 h, RSV-B VR-955 MOI 0.5, 6 days
  EC50: 72 ± 9 nM
RSV-B VR-955 [3]; RSV-B VR-955
  EC90: 223 ± 90 nM
RSV-A Long [4]; 144 h, RSV-A Long MOI 0.1, 6 days
  EC50: 21 ± 17 nM
RSV-A Long [4]; RSV-A Long
  EC90: 29 ± 23 nM
RSV-B VR-955 [5]; 168 h, RSV-B VR-955 MOI 0.1, 7 days
  EC50: 64 ± 30 nM
RSV-B VR-955 [5]; RSV-B VR-955
  EC90: 74 ± 33 nM
RSV-A Long [6]
  EC50: 16800 nM
RSV-A Long [7]
  EC50: 10300 nM
[8]
  EC50: 54 to 110 nM
RSV-B clinical isolates
  EC50: 51 nM
RSV A2; 100 mg/kg BID oral gavage
  reduction in peak viral load: ~ 4 log10
RSV A2; 100 mg/kg BID oral gavage, BAL
  effect on RSV viral load vs vehicle control: completely suppressed viral replication
RSV A2; 100 mg/kg BID oral gavage, Day 5, to below limit of detection (100 copies/mL)
  viral load reduction in BAL: 4 log10
RSV A2; 100 mg/kg BID oral gavage, Day 7, to below limit of detection (100 copies/mL)
  viral load reduction in NP swab: 4 log10
RSV A2; BAL fluid, above the limit of detection
  viral rebound after cessation of treatment: no viral rebound was observed
[9]; recombinant RSV N K107N
  EC50 Fold Change vs. WT: 1.2 fold
[9]; recombinant RSV N K136R
  EC50 Fold Change vs. WT: 2.7 fold
[9]; recombinant RSV N L139I
  EC50 Fold Change vs. WT: 7.2 fold
[9]; recombinant RSV N M109I
  EC50 Fold Change vs. WT: 1.6 fold
[9]; recombinant RSV N M109K
  EC50 Fold Change vs. WT: 26.9 fold
[9]; recombinant RSV N M109T
  EC50 Fold Change vs. WT: 5.4 fold
[9]; recombinant RSV N N105D
  EC50 Fold Change vs. WT: 1.3 fold
[9]; recombinant RSV N S134T
  EC50 Fold Change vs. WT: 2.2 fold
[9]; recombinant RSV N V90A
  EC50 Fold Change vs. WT: 1.0 fold
[9]; recombinant RSV Wild-type (WT)
  EC50 Fold Change vs. WT: 1.0 fold

Source: article PMC7993833, “EDP-938, a novel nucleoprotein inhibitor of respiratory syncytial virus, demonstrates potent antiviral activities in vitro and in a non-human primate model” (PLoS Pathogens, 2021)
